Results taken from patent publication US20260225970A1, “SOIL C[…] USE THEREOF” (priority 2020, published 2026).
Like-named read-outs stand apart in the source and are kept apart here.

System: Nitrosomonas europaea IF014298
Experiment: Bioluminescence nitrification inhibition assay using a nitrifying bacterium in vitro (luxAB-introduced Nitrosomonas europaea)
Assay type: cell-based
Conditions: for IC80: IF014298, 0.5 h, read-out: Nitrification inhibitory activity ED80; for nitrification inhibitory activity: result in words, conclusion from the bioluminescence assay (Table 2)
Procedure: The nitrification inhibitory action of 2,7-dimethoxy-1,4-naphthoquinone was analyzed using a nitrifying bacterium in vitro (T. Iizumi, M. Mizumoto, K. Nakamura, A Bioluminescence assay using Nitrosomonas europaea for rapid and sensitive detection of nitrification inhibitors (1998) Appl. Environment. Microbiol., 64, 3656-3662).
A nitrifying bacterium (Nitrosomonas europaea IF014298) into which a luciferase gene derived from a bacterium (luxAB) had been introduced was aerobically cultured at 30° C. for 7 to 9 days in a P culture medium containing kanamycin (25 mg/l L). The obtained nitrifying bacterium was washed and then suspended in a fresh P culture medium to prepare a nitrifying bacterial suspension. This nitrifying bacterial suspension was allowed to stand in a dark place for 30 minutes or more before the experiment.
Here, the composition of the P culture medium consisted of 2.5 g of (NH4)2SO4, 0.7 g of KH2PO4, 13.5 g of Na2HPO4, 0.5 g of NaHCO3, 100 mg of MgSO4/7H2O, 5 mg of CaCl2/2H2O, 1 mg of Fe-EDTA, and 1 L of water, and the pH thereof was 8.0.
After mixing in vitro an aqueous solution of the above-described nitrifying bacterial suspension, consisting of 0.25 mL of the above-described nitrifying bacterial suspension and 0.2 mL of water, with 0.01 mL of a sample solution of 2,7-dimethoxy-1,4-naphthoquinone at various concentrations, the amount of bioluminescence associated with the nitrification reaction during culturing at 15° C. for 30 minutes was measured using a luminometer (manufactured by Turner Designs, Inc., model name: TD20/20), whereby the nitrification action was evaluated.
The amount of bioluminescence associated with the nitrification reaction decreases in a case where a substance having a nitrification inhibitory action is present in the sample solution. Therefore, the amount of luminescence in a case where each of the sample solutions of 2,7-dimethoxy-1,4-naphthoquinone at various concentrations was added to the aqueous solution of the nitrifying bacterial suspension was divided by the amount of luminescence in the case of only using the aqueous solution of the bacterial cell suspension without the sample solution being added, thereby obtaining a value as the nitrification inhibition rate. The results of measuring the nitrification inhibitory activity of the present compound at various concentrations are shown in FIG. 5.
In addition, the nitrification inhibitory activity of the 1,4-naphthoquinone derivative was measured in the same manner. In Table 2, R^1 to R^6 are each R^1 to R^6 in Formula (1), respectively.

[1] = bioluminescence during culturing at 15° C. for 30 minutes, luxAB Nitrosomonas europaea suspension in P culture medium

SMILES	IC80 [1] [µM]	nitrification inhibitory activity	IC80 (Nitrosomonas europaea) [µM]	ED50 (nitrification inhibition, dose response curve of FIG. 5, second value printed as ED50 in the same sentence, 15° C., 30 minutes) [µM]	nitrification inhibitory activity (listed as 2,7-dimethoxy-1,4-naphthoquinone)	nitrification inhibitory activity (listed as zeanone)
O=C1C=CC(=O)c2ccccc21 [1,4-Naphthoquinone]	4.4	have a nitrification inhibitory activity				
O=C1C(Cl)=C(Cl)C(=O)c2ccccc21 [2,3-Dichloro-1,4-naphthoquinone]	2.2	have a nitrification inhibitory activity				
O=C1C(Cl)=C(Cl)C(=O)c2c(O)ccc(O)c21 [2,3-Dichloro-5,8-dihydroxy-1,4-naphthoquinone]	0.9	have a nitrification inhibitory activity				
NC1=C(Cl)C(=O)c2ccccc2C1=O [2-Amino-3-chloro-1,4-naphthoquinone]	13.3	have a nitrification inhibitory activity				
O=C1C=C(Cl)C(=O)c2ccccc21 [2-Chloro-1,4-naphthoquinone]	4	have a nitrification inhibitory activity				
O=C1C=C(O)C(=O)c2ccccc21 [2-Hydroxy-1,4-naphthoquinone]	> 100	does not have a nitrification inhibitory activity				
COC1=CC(=O)c2ccccc2C1=O [2-Methoxy-1,4-naphthoquinone]	8.9	have a nitrification inhibitory activity				
CC1=CC(=O)c2ccccc2C1=O [2-Methyl-1,4-naphthoquinone]	4.4	have a nitrification inhibitory activity				
O=C1C=CC(=O)c2c(O)ccc(O)c21 [5,8-Dihydroxy-1,4-naphthoquinone]		have a nitrification inhibitory activity	2.2			
O=C1C=CC(=O)c2c(O)cccc21 [5-Hydroxy-1,4-naphthoquinone]	1.1	have a nitrification inhibitory activity				
CC1=CC(=O)c2c(O)cccc2C1=O [5-Hydroxy-2-methyl-1,4-naphthoquinone]	0.5	have a nitrification inhibitory activity				
Cc1ccc2c(c1)C(=O)C=CC2=O [6-Methyl-1,4-naphthoquinone]	2.2	have a nitrification inhibitory activity				
COC1=CC(=O)c2ccc(OC)cc2C1=O [Zeanone, 2,7-dimethoxy-1,4-naphthoquinone]	16.1			16.1	have a nitrification inhibitory activity	excellent nitrification inhibitory action
